Series [1] has as its target T1, human PLK1 (Homo sapiens, UniProt P53350).
T1 construct: A full-length human PLK1 (XM—047240) (amino acids 1-603) clone; His6 (N); made in house; host or cells: Sf9 insect cells (baculovirus) for PLK1; E. coli BL21(DE3) RIL for CDC25C
In words: PLK1 protein kinase assay (CDC25C phosphorylation, [γ-32P]-ATP). It counts as biochemical. Particulars: read-out: PLK1 kinase inhibition IC50. The source says: A full-length human CDC25C clone was isolated by PCR from HeLa mRNA and was inserted on a BamHI-HindIII fragment into pRsetA. The amino terminal fragment of CDC25C (encoding residues 1-300) was excised from this vector and inserted into pET28a (between the NcoI and BamHI sites). Expression was under the control of the T7 promoter, and the encoded protein contained a His6 tag at the carboxyl terminus. The vector was transformed into E. coli strain BRL(DE3) pLysS for expression experiments. CDC25C was expressed in BL21(DE3) RIL bacteria cells, grown in LB media at 37° C. until OD600nm of 0.6 was reached. The expression was induced with 1 mM IPTG and the bacterial culture was grown further for 3 h. The bacteria were harvested by centrifugation and the cell pellet was re-suspended in 50 mM Tris pH 7.5 and 10% sucrose, flash frozen, and stored at −70° C. until used. CDC25C protein was purified from E. coli inclusion bodies. The inclusion bodies were isolated in a buffer (50 mM Tris pH 8.0, 2 mM EDTA, 100 mM NaCl, 0.5% triton X-100). After denaturation in the presence of 6 M urea, the protein was refolded via slow dialysis of the urea. The protein was stored in 25 mM Tris pH 8.0, 100 mM NaCl, 1 mM DTT, 1 mM EDTA and 10% glycerol at −70° C. until used.
A full-length human PLK1 (XM—047240) (amino acids 1-603) clone was amplified from a foetal lung cDNA library using primers incorporating restriction enzyme sites. […] The 3′ primer ([…]) incorporated a stop codon prior to the EcoR1 site. The PCR product was cloned into the Nhe1/EcoR1 sites of a baculovirus expression vector, pSSP 1. […] Cells were only used for expression in logarithmic growth phase. […] The flasks were incubated at 27° C., with shaking at 100 r.p.m. for 48 h. On harvest, cell density and viability was determined, the cultures spun down at 2500 r.p.m. for 5 min and washed with ice-cold phosphate-buffered saline. The wash was re-spun at the same speed and the pellet was snap frozen. PLK1 protein was purified on a metal affinity column.
PLK1 protein kinase assays were carried out using a 96-well plate format by incubating CDC25C (2 μg/well) with PLK1 (1 μg/well) in 20 mM Tris/HCl buffer pH 7.5, supplemented with 25 mM β-glycerophosphate, 5 mM EGTA, 1 mM DTT and 1 mM NaVO3. Serial dilutions of test compound in assay buffer were added. […] The reaction mixture was incubated at 30° C. for 1 h, then stopped with 75 mM aq orthophosphoric acid, transferred onto a 96-well P81 filter plate (Whatman), dried, and the extent of CDC25C phosphorylation was assessed by scintillation counting using a Packard TopCount plate reader. The raw assay data was analysed by non-linear regression analysis parameters and IC50 values were determined using the equation: y=A+((B−A)/(1+((C/x)ˆD))), where y is % inhibition, A is minimum inhibition, B is maximum inhibition, C is EC50, and D is the slope factor.

The test system of series [2] is A549. In words: 72-h MTT cellular proliferation assay, A549. Conditions: Homo sapiens, A549, 72 h; read-out: Anti-proliferative activity on tumour cell lines (MTT assay) A549 IC50. It is filed as cell-based. The protocol: (§1) Cellular proliferation assays using human tumour cell lines (obtained from the American Type Culture Collection, 10801 University Boulevard, Manessas, Va. 20110-2209, USA) were carried out. Standard 72-h MTT (thiazolyl blue; 3-[4,5-dimethylthiazol-2-yl]-2,5-diphenyltetrazolium bromide) assays were performed (Loveland et al, Biochem. Int., 1992, 27, 501; Haselsberger et al, Anti Cancer Drugs, 1996, 7, 331). In short: cells were seeded into 96-well plates according to doubling time and incubated overnight at 37° C. Test compounds were made up in DMSO and a ⅓ dilution series prepared in 100 μL cell media, added to cells (in triplicates) and incubated for 72 h at 37° C. MTT was made up as a stock of 5 mg/mL in cell media and filter-sterilised. Media was removed from cells followed by a wash with 200 μL PBS. MTT solution was then added at 20 μL per well and incubated in the dark at 37° C. for 4 h. MTT solution was removed and cells again washed with 200 μL PBS. MTT dye was solubilised with 200 μL per well of DMSO with agitation.
(Tetrazolium dyes change colour on reduction, which living cells bring about.)

In series [3] the test system is HELA. Briefly: 72-h MTT cellular proliferation assay, HELA. It counts as cell-based. Particulars: Homo sapiens, read-out: Anti-proliferative activity on tumour cell lines (MTT assay) HELA IC50. The protocol:
as §1

Series [4] deals with MCF-7. In words: 72-h MTT cellular proliferation assay, MCF-7. It counts as cell-based. Particulars: Homo sapiens, MCF7; MCF-7, 72 h; read-out: Anti-proliferative activity on tumour cell lines (MTT assay) MCF-7 IC50. The protocol:
as §1

For series [5], the system named is U2OS. In words: 72-h MTT cellular proliferation assay, U2OS. Conditions: Homo sapiens, read-out: Anti-proliferative activity on tumour cell lines (MTT assay) U2OS IC50. It counts as cell-based. The protocol:
as §1

Read-outs that look alike come from different tables or passages of the source.

T1 sequence (P53350 whole entry, the tested form may be a part): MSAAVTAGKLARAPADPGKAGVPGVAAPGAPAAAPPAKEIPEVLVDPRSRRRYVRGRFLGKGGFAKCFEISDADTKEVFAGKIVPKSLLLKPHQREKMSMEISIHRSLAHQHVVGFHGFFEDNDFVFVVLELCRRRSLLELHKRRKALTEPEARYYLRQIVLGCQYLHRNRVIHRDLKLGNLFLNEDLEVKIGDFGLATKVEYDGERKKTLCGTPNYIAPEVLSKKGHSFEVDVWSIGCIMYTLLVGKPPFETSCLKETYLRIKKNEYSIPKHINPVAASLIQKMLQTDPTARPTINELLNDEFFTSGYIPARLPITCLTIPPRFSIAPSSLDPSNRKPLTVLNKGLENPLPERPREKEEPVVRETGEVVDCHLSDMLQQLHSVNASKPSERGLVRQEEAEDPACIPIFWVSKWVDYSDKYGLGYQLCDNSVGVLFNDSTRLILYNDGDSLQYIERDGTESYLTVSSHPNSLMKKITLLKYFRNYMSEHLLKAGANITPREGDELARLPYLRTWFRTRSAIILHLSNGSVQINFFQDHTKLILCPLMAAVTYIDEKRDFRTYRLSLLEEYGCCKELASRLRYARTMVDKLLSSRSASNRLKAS

A word on the IC50: it is the concentration that inhibits the measured activity by half. As a reminder, the melting point is the temperature of the solid-liquid transition. In turn, `NNC(=O)c1sc2c([N+](=O)[O-])cc(C(F)(F)F)cc2[n+]1[O-]` [Compound 1c, 7-Nitro-3-oxy-5-trifluoromethyl-benzothiazole-2-carboxylic acid hydrazide] gave a melting point of 229 to 230 °C. The half-maximal inhibitory concentration (IC50) in series [1] (100 μM ATP) was more than 100 µM. Further, the 50% inhibitory concentration (IC50) in series [2] amounted to 21 ± 3 µM. Also, the concentration for half-maximal inhibition (IC50) in series [3] was found to be 16 ± 10 µM. For the same compound, the IC50 in series [4] was 19 ± 16 µM. The IC50 in series [5] stood at 35 ± 3 µM.
Take `O=[N+]([O-])c1cc(C(F)(F)F)cc2c1sc(O)[n+]2[O-]` [Compound 1i, 7-Nitro-3-oxy-5-trifluoromethyl-benzothiazol-2-ol]: the IC50 in series [1] (100 μM ATP) was found to be 39 µM; in series [2], 48 ± 5 µM; in series [3], 56 ± 2 µM; in series [4] it was 35 ± 2 µM; in series [5] it was 88 ± 10 µM.
On to `NC(=O)c1sc2c([N+](=O)[O-])cc(F)cc2[n+]1[O-]` [Compound 1f, 5-Fluoro-7-nitro-3-oxy-benzothiazole-2-carboxylic acid amide], for which the half-maximal inhibitory concentration (IC50) in series [1] (kinase assay at 10 μM ATP) is 50 to 100 µM; in series [2] it was 3.9 ± 0.2 µM; in series [3], 10.2 ± 2.4 µM; in series [4], 1.6 ± 0.2 µM; in series [5], 11.5 ± 2 µM.
`NC(=O)c1sc2c([N+](=O)[O-])cc(SC(F)(F)F)cc2[n+]1[O-]` [Compound 1j, 7-Nitro-3-oxy-5-trifluoromethylsulfanyl-benzothiazole-2-carboxylic acid amide] gave a melting point of 255 to 256 °C. Moreover, the half-maximal inhibitory concentration (IC50) in series [2] turned out to be 4 ± 1.8 µM. In addition, the IC50 in series [3] was 6 ± 0.8 µM. In addition, in series [4], the IC50 is 2.5 ± 1 µM. Moreover, the concentration for half-maximal inhibition (IC50) in series [5] turned out to be 8.2 ± 0.3 µM.
Turning to `N#Cc1cc([N+](=O)[O-])c2sc(C(N)=O)[n+]([O-])c2c1` [Compound 1d, 5-Cyano-7-nitro-3-oxy-benzothiazole-2-carboxylic acid amide], the IC50 was 10 ± 7 µM in series [1] (100 μM ATP); 4.2 ± 1.5 µM in series [2]; 6.6 ± 0.8 µM in series [3]; 2 ± 2 µM in series [4]; 6.7 ± 1.2 µM in series [5].
As to `N#Cc1sc2c([N+](=O)[O-])cc(C(F)(F)F)cc2[n+]1[O-]` [Compound 1h, 7-Nitro-3-oxy-5-trifluoromethyl-benzothiazole-2-carbonitrile], the IC50 stood at 21 µM in series [1] (100 μM ATP); 10 ± 0.08 µM in series [2]; 10.2 ± 3.3 µM in series [3]; 2.1 ± 1.5 µM in series [4]; 9.5 ± 1.7 µM in series [5].
Turning to `O=C(c1sc2c([N+](=O)[O-])cc(C(F)(F)F)cc2[n+]1[O-])N1CCCC1` [Compound 1b, (7-Nitro-3-oxy-5-trifluoromethyl-benzothiazol-2-yl)-pyrrolidin-1-yl-methanone], the IC50 in series [1] (100 μM ATP) came to 56 ± 19 µM; in series [2], 5.2 µM; in series [3], 12 µM; in series [5], 16 µM.
Compound `O=C(NO)c1sc2c([N+](=O)[O-])cc(C(F)(F)F)cc2[n+]1[O-]` [Compound 1e, 7-Nitro-3-oxy-5-trifluoromethyl-benzothiazole-2-carboxylic acid hydroxyamide] came in with a melting point of 230 to 231 °C. The concentration for half-maximal inhibition (IC50) in series [1] (100 μM ATP) was in the range of 50 to 100 µM. In series [2], the half-inhibitory concentration (IC50) stood at 13.3 ± 0.6 µM. Besides, the half-inhibitory concentration (IC50) in series [3] came out at 21 ± 4 µM. Also, the IC50 in series [4] turned out to be 9 ± 1 µM. Further, the IC50 in series [5] worked out at 29.4 ± 1.2 µM.
On to `NC(=O)c1sc2c([N+](=O)[O-])cc(C(F)(F)F)cc2[n+]1[O-]` [Compound 1a, 7-Nitro-3-oxy-5-trifluoromethyl-benzothiazole-2-carboxylic acid amide], for which the IC50 in series [2] is 24 ± 3 µM; in series [3], 16 ± 8 µM; in series [4], 12.6 ± 6.3 µM; in series [5], 47 ± 7 µM.
For `O=C(NO)c1sc2c([N+](=O)[O-])cc(F)cc2[n+]1[O-]` [Compound 1g, 5-Fluoro-7-nitro-3-oxy-benzothiazole-2-carboxylic acid hydroxyamide], the melting point fell in the range of 224 to 225 °C. For the same compound, in series [1] (100 μM ATP), the IC50 worked out at 67 ± 7 µM. Also, the half-inhibitory concentration (IC50) in series [2] came out at 7.7 ± 2.9 µM. The IC50 in series [3] was 14 ± 5 µM. Besides, the IC50 in series [4] was determined as 6.1 ± 1.1 µM. Also, the concentration for half-maximal inhibition (IC50) in series [5] stood at 7.2 ± 3.6 µM.
